Inhibition data for three compounds are collected here from ChEMBL document CHEMBL3627608, “Crystal structures of human RIP2 kinase catalytic domain complexed with ATP-competitive inhibitors: Foundations for understanding inhibitor selectivity” (Bioorg Med Chem, 2015).

In general, inhibition refers to the relative decrease from the control value, in per cent.

For experiment [1], the target named is NT-3 growth factor receptor (Homo sapiens) (UniProt Q16288). As to the kind of experiment: Inhibition of TRKC (unknown origin) at 10 uM after 120 mins P33 radiolabeled kinase activity assay.
In experiment [2] the target is Fibroblast growth factor receptor 4 (Homo sapiens) (UniProt P22455). Put plainly: Inhibition of FGFR4 (unknown origin) at 10 uM after 120 mins P33 radiolabeled kinase activity assay.
In experiment [3] the target is Hepatocyte growth factor receptor (Homo sapiens) (UniProt P08581). Put plainly: Inhibition of c-MET (unknown origin) at 10 uM after 120 mins P33 radiolabeled kinase activity assay.
For experiment [4], the target named is Cyclin-dependent kinase 2/cyclin A (Homo sapiens) (UniProt P24941+P20248+P78396). Put plainly: Inhibition of CDK2/cyclin A (unknown origin) at 10 uM after 120 mins P33 radiolabeled kinase activity assay. It is filed as protein-complex assay.
For experiment [5], the target named is T1, Phosphorylase b kinase gamma catalytic chain, liver/testis isoform (Homo sapiens) (UniProt P15735).
T1 sequence (whole entry): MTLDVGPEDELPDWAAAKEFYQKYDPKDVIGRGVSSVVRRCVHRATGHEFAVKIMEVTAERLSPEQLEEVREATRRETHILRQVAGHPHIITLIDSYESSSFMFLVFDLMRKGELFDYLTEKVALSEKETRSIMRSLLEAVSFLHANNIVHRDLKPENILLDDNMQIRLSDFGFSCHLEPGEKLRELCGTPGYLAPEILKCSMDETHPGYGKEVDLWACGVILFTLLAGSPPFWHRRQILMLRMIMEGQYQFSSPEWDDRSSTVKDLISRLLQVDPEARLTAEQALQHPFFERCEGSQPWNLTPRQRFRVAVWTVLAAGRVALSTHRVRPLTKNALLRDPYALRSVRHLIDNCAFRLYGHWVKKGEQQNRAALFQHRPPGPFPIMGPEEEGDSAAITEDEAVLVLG
Put plainly: Inhibition of PHKg2 (unknown origin) at 10 uM after 120 mins P33 radiolabeled kinase activity assay.

The target of experiment [6] is Serine/threonine-protein kinase WNK3 (Homo sapiens) (UniProt Q9BYP7). Put plainly: Inhibition of WNK3 (unknown origin) at 10 uM after 120 mins P33 radiolabeled kinase activity assay.
The target of experiment [7] is T2, Tyrosine-protein kinase ITK/TSK (Homo sapiens) (UniProt Q08881).
T2 sequence (whole entry): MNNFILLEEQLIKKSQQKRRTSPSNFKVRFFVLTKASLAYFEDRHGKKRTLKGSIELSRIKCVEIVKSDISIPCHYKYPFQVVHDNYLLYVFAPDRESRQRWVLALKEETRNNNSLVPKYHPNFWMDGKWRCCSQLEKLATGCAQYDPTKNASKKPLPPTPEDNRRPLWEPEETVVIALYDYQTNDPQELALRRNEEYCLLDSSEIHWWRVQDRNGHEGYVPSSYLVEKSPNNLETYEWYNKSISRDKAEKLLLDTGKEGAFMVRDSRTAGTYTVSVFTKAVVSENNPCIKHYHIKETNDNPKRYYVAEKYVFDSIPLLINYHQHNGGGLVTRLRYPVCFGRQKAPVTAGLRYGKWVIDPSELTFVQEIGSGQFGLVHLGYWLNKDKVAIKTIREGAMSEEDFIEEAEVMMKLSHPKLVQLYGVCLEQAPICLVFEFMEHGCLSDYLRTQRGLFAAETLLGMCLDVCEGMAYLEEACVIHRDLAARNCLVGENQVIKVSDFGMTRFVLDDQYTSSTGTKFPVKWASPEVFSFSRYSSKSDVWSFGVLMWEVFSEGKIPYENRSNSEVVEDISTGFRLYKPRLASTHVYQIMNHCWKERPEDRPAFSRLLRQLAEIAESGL
Put plainly: Inhibition of ITK (unknown origin) at 10 uM after 120 mins P33 radiolabeled kinase activity assay.

For experiment [8], the target named is Calcium/calmodulin-dependent protein kinase type II subunit delta (Homo sapiens) (UniProt Q13557). Put plainly: Inhibition of CAMK2delta (unknown origin) at 10 uM after 120 mins P33 radiolabeled kinase activity assay.
Experiment [9] addresses Activin receptor type-1-like (Homo sapiens) (UniProt P37023). As to the kind of experiment: Inhibition of ALK1 (unknown origin) at 10 uM after 120 mins P33 radiolabeled kinase activity assay.
In experiment [10] the target is T3, Cytoplasmic tyrosine-protein kinase BMX (Homo sapiens) (UniProt P51813).
T3 sequence (whole entry): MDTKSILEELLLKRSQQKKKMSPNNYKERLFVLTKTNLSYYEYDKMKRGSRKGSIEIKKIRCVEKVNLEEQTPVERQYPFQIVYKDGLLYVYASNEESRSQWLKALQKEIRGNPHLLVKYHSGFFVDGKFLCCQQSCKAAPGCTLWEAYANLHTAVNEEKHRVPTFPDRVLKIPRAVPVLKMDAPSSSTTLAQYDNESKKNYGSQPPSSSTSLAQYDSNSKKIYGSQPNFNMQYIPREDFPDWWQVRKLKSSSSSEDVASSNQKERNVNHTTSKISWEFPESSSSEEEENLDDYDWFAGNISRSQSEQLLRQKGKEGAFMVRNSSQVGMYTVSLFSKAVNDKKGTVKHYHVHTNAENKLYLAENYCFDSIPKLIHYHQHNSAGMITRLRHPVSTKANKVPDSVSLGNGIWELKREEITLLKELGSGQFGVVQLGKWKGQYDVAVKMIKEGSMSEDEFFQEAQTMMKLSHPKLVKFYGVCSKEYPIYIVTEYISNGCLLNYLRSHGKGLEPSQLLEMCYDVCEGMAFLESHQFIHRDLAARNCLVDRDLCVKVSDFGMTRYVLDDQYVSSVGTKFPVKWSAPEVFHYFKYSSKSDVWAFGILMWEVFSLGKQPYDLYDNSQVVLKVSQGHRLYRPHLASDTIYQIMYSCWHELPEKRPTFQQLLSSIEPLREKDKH
Put plainly: Inhibition of BMX (unknown origin) at 10 uM after 120 mins P33 radiolabeled kinase activity assay.

Experiment [11] concerns the target Casein kinase I isoform gamma-2 (Homo sapiens) (UniProt P78368). As to the kind of experiment: Inhibition of CK1gamma2 (unknown origin) at 10 uM after 120 mins P33 radiolabeled kinase activity assay.
Experiment [12] has as its target Mitogen-activated protein kinase kinase kinase 20 (Homo sapiens) (UniProt Q9NYL2). Put plainly: Inhibition of ZAK (unknown origin) at 10 uM after 120 mins P33 radiolabeled kinase activity assay.
For experiment [13], the target named is Serine/threonine-protein kinase pim-2 (Homo sapiens) (UniProt Q9P1W9). As to the kind of experiment: Inhibition of PIM2 (unknown origin) at 10 uM after 120 mins P33 radiolabeled kinase activity assay.
For experiment [14], the target named is Receptor tyrosine-protein kinase erbB-4 (Homo sapiens) (UniProt Q15303). As to the kind of experiment: Inhibition of ERBB4 (unknown origin) at 10 uM after 120 mins P33 radiolabeled kinase activity assay.
Sequence of Receptor tyrosine-protein kinase erbB-4 (Homo sapiens) (Q15303 whole entry): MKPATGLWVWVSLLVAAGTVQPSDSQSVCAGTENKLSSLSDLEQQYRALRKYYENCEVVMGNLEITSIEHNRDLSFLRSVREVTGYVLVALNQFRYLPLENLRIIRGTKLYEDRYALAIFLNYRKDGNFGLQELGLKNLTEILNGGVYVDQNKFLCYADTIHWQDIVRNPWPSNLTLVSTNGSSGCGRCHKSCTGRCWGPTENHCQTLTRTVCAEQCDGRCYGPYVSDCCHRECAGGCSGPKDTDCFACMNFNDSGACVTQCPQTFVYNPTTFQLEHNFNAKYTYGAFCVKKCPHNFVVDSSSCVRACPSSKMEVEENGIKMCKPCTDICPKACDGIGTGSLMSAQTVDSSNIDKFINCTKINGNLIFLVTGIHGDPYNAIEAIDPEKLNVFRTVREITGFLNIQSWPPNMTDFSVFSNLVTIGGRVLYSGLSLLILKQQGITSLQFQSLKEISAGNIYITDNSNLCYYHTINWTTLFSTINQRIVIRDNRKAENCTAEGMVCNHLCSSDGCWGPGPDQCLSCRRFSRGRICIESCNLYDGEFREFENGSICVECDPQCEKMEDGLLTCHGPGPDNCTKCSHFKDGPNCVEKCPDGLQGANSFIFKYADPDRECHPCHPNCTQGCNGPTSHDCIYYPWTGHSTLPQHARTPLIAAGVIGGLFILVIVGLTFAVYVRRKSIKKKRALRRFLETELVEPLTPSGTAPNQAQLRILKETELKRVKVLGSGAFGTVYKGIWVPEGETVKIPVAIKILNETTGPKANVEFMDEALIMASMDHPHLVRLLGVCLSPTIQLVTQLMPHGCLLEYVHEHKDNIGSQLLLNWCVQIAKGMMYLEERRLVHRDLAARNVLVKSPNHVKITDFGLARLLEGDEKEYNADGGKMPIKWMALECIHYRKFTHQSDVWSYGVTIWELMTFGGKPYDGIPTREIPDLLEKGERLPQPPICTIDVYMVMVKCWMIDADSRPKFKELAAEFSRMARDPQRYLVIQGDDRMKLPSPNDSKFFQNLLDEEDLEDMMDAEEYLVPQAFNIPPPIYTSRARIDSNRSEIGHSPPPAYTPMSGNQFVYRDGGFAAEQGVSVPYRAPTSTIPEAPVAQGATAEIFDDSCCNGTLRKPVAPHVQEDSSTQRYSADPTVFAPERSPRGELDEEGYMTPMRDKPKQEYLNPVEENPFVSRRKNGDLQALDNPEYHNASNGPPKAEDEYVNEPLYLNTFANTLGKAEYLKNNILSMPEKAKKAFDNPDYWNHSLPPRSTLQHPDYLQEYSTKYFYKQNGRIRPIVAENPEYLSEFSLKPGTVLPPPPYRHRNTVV

Sequence of Casein kinase I isoform gamma-2 (Homo sapiens) (P78368 whole entry, looked up, canonical isoform): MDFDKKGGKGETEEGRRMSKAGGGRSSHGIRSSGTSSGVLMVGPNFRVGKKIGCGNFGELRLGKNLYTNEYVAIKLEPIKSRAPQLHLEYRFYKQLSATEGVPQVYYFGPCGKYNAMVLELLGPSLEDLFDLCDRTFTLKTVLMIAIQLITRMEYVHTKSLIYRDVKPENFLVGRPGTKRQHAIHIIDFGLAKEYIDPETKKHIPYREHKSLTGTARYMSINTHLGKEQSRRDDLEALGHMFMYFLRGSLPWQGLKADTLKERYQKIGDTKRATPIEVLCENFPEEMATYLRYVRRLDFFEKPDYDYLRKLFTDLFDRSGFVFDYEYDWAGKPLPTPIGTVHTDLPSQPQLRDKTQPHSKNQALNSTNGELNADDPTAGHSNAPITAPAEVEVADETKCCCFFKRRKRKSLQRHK
Sequence of Serine/threonine-protein kinase pim-2 (Homo sapiens) (Q9P1W9 whole entry, looked up): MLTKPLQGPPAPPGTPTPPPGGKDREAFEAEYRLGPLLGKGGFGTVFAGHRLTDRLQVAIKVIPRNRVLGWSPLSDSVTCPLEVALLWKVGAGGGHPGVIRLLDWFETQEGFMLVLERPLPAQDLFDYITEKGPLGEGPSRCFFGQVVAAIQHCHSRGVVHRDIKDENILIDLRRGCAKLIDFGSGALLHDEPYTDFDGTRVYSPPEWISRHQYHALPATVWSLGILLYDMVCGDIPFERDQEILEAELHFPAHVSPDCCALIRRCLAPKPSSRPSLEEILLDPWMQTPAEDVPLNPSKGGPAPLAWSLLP
Sequence of NT-3 growth factor receptor (Homo sapiens) (Q16288 32-839 limits assumed): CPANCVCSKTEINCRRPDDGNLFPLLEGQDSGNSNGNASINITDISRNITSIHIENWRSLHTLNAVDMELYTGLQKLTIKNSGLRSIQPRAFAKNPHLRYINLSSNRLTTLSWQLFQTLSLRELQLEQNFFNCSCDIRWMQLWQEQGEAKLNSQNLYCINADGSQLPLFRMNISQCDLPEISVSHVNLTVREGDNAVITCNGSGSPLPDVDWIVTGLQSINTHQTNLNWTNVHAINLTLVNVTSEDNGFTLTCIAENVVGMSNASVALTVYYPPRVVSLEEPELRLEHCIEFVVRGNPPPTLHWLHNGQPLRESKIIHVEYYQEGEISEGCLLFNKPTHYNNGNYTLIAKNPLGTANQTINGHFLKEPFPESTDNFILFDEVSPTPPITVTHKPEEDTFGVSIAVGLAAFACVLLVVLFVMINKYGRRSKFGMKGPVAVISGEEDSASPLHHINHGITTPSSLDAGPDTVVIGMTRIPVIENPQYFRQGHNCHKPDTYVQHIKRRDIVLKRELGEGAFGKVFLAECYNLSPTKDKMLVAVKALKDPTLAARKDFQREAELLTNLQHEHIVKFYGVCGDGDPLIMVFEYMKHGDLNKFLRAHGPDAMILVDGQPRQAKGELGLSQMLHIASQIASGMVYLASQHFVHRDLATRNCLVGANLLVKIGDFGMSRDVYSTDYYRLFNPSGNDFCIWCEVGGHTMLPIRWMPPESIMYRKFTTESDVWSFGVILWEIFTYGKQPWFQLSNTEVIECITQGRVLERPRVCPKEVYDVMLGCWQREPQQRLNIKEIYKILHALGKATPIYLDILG
Sequence of Activin receptor type-1-like (Homo sapiens) (P37023 whole entry): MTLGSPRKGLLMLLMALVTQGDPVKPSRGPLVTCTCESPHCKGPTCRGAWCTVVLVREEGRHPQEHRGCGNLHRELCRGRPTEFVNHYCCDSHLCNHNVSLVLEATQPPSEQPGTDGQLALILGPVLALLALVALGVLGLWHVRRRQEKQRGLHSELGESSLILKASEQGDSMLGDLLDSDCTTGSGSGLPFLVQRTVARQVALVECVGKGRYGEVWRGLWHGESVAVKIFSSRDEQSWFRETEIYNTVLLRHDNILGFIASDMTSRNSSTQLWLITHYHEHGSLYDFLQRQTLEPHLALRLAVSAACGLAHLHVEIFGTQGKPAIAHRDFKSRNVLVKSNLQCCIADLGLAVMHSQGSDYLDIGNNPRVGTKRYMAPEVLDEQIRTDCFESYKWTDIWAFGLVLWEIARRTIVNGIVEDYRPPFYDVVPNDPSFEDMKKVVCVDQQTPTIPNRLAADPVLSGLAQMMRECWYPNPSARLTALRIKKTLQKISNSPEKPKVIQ
Sequence of Mitogen-activated protein kinase kinase kinase 20 (Homo sapiens) (Q9NYL2 2-800 limits assumed): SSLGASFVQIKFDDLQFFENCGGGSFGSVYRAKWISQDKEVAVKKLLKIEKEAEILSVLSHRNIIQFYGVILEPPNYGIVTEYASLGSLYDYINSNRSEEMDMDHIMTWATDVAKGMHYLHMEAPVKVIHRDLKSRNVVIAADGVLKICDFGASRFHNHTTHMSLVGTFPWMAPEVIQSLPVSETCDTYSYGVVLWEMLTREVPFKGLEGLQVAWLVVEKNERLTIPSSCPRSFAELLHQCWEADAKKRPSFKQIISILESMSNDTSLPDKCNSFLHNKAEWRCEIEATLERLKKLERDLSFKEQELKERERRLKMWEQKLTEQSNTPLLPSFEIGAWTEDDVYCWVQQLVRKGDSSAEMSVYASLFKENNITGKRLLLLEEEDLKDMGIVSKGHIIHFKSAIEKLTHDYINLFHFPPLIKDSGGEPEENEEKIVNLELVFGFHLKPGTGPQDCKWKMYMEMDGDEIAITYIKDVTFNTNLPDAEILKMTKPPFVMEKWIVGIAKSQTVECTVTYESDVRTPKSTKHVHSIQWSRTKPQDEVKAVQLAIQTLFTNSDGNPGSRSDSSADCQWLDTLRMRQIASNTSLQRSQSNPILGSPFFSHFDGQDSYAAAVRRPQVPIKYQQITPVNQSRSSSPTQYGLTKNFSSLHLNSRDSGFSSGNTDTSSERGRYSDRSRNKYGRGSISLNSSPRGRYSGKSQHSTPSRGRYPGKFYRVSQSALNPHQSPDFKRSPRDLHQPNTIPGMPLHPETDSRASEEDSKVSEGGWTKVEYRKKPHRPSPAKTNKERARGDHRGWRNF
Sequence of Fibroblast growth factor receptor 4 (Homo sapiens) (P22455 22-802 limits assumed): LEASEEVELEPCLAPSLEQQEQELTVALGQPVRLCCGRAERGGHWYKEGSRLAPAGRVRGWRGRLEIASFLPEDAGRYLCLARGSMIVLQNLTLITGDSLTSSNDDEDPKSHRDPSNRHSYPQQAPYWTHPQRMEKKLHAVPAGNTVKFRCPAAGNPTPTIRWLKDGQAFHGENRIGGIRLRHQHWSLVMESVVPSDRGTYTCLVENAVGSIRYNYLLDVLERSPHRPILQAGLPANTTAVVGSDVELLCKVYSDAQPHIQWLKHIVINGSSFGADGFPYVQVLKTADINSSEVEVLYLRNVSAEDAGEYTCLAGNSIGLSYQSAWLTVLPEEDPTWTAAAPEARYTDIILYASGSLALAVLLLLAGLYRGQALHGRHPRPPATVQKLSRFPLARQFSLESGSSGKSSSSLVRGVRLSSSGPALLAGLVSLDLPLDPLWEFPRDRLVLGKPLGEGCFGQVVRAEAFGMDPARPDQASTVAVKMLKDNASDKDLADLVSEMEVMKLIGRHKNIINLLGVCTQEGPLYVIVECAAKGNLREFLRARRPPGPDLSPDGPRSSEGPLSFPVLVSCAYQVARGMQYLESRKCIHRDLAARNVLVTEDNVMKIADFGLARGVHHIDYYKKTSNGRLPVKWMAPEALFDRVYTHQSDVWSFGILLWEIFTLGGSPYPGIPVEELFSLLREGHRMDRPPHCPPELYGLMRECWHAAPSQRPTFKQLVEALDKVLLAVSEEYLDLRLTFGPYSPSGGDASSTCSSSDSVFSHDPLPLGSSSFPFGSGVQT

Take `COCCNC(=O)c1ccc2c(c1)nc(-c1cnc(-c3ccc(Cl)cc3)[nH]1)n2CCOC`: the inhibition in experiment [1] was 11.8%; in experiment [2], 3.75%; in experiment [3], 10.9%; in [4], -6.73%; in experiment [5] it was 3.38%; in [6], -2.44%. Also, the inhibition in [7] was 15.1%; in experiment [8], -0.09%; in [9], 28.2%; in experiment [10], 13.9%; in experiment [11], 11.4%; in [12], 38.8%. The figures for the inhibition in experiment [13] and in experiment [14] were 0.63% and 1.69%, respectively.
Turning to `CC(C)(C)c1cc(NC(=O)Nc2ccc(Oc3ccncc3)cc2)no1`, the inhibition in [1] was 99.7%; in [2], 73.3%; in experiment [3], 92.4%; in experiment [4], 6.27%; in [5], -3.81%; in experiment [6], 1.93%. The inhibition in experiment [7] was 15.4%; in experiment [8], 3.15%; in [9], 3.54%; in [10], 15.5%; in experiment [11], 20.1%; in experiment [12], 99.8%. The values for the inhibition in experiment [13] and in experiment [14] were 3.72% and -3.92%, respectively.
On to `CS(=O)(=O)c1cccc(Nc2nccc(-c3sc(N4CCOCC4)nc3-c3cccc(NS(=O)(=O)c4c(F)cccc4F)c3)n2)c1`, for which the inhibition in [1] stood at 84.8%; in experiment [2] it was 47.3%; in [3], 16.8%; in experiment [4] it was 62.9%; in experiment [5] it was 5.98%; in experiment [6] it was 25.9%. For the same compound, the inhibition turned out to be 96.8% in experiment [7]; 7.04% in [8]; 96.2% in experiment [9]; 98% in experiment [10]; 34.5% in [11]; 99.8% in [12]. The inhibition was determined as 6.09% in experiment [13] and 98.5% in experiment [14].
